According to patent US20200277246A1, “TREATMENT METHOD, COMPOUNDS, AND METHOD OF INCREASING TRPV2 ACTIVITY” (THE FEINSTEIN INSTITUTE FOR MEDICAL RESEARCH, priority 2015, published 2020):
Several values for one entry are separate records, joined by “and”; a condition that tells them apart may be missing. Identical values can stand only once.

Experiments:
[1] = tested on: DBA1/J mice with collagen-induced arthritis; assay: Collagen induced arthritis (CIA); type: in vivo, mouse
Excerpt: CIA was induced in 8-week-old male DBA1/J mice (Jackson Laboratories) using a standard protocol (Courtenay et al., “Immunisation Against Heterologous Type II Collagen Induces Arthritis in Mice,” Nature 283 (5748):666-668 (1980); Nagler-Anderson et al., “Suppression of Type II Collagen-Induced Arthritis by Intragastric Administration of Soluble Type II Collagen,” Proc. Natl. Acad. Sci. U.S.A. 83 (19):7443-7446 (1986), which are hereby incorporated by reference in their entirety). Briefly, bovine type II collagen (Chondrex, Redmond, Wash.) was dissolved overnight in acetic acid 0.1 N and then homogenized at 1:1 with Complete Freund's Adjuvant (CFA, Difco, Detroit, Mich.). Anesthetized mice were injected intradermally with 100 μg of type II collagen emulsified in CFA in the tail. The new Trpv2 agonist LER13 (10 mg/Kg) or control vehicle (PBS 50%, PEG300 40%, PG 5%, PS80 5%) was started on day 10 (D10) and administered intra-peritoneally every-other-day (from D10 until day 55). On day 21 (D21), mice received a booster injection of 100 μg of type II collagen in incomplete Freund's adjuvant. Clinical signs of arthritis were evident on day 24 (D24).
Arthritis severity in CIA mice was scored using a modified scoring system based on Jirholt et al., “Genetic Linkage Analysis of Collagen-Induced Arthritis in the Mouse,” Eur. J. Immunol. 28 (10):3321-3328 (1998), which is hereby incorporated by reference in its entirety. Briefly, the modified scoring system ranged from 0-16 per mouse per day and included a functional component of disease severity (non-weight bearing) in the maximum score of 4 per paw. The arthritis severity index (ASI), which is the sum of all scores obtained during the observation period, was used to compare treatment groups as it provides a comprehensive assessment of arthritis severity over time, and correlates with histologic damage (Brenner et al., “The Non-MHC Quantitative Trait Locus Cia10 Contains a Major Arthritis Gene and Regulates Disease Severity, Pannus Formation and Joint Damage,” Arthritis Rheum. 52 (1):322-332 (2005); Brenner et al., “The Non-MHC Quantitative Trait Locus Cia5 Contains Three Major Arthritis Genes that Differentially Regulate Disease Severity, Pannus Formation, and Joint Damage in Collagen- and Pristane-Induced Arthritis,” J. Immunol. 174 (12):7894-7903 (2005), which are hereby incorporated by reference in their entirety).

Trpv1 = Trpv1 (Homo sapiens, UniProt Q8NER1); conditions: cited from earlier work
Trpv1, sequence (Q8NER1 whole entry, species assumed): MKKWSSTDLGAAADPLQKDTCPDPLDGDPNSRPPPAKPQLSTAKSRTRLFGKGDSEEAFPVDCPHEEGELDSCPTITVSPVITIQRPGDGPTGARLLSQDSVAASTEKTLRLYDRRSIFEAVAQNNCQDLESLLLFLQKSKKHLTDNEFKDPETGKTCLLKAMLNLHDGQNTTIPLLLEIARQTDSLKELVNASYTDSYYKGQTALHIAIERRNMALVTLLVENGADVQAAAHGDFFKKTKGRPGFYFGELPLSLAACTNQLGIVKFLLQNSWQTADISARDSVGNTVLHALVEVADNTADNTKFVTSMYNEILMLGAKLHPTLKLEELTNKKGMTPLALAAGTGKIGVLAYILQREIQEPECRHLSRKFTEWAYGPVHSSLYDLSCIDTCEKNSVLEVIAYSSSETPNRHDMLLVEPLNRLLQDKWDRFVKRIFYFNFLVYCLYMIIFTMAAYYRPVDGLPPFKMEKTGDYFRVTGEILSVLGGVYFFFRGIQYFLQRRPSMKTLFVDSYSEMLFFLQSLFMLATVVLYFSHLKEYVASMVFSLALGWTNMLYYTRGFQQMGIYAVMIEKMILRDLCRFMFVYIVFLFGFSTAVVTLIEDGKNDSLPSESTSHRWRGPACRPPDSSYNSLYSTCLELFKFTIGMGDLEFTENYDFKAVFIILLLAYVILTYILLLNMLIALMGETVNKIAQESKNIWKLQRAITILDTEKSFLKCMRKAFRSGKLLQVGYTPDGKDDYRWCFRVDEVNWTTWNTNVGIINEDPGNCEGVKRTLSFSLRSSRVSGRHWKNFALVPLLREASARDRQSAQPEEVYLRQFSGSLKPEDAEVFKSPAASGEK

p65 NFκB = p65 NFκB nuclear location by immunofluorescence in FLS; type: cell-based; conditions: 5, 10, 30, and 60 minutes, and 24 hours
[2] = tested on: cervix carcinoma cell line; assay: Cancer cell invasion, cervix carcinoma; type: cell-based
MMP-3 = assay: IL-1β-induced MMP-3 expression (qPCR) in RA FLS; type: cell-based, human; conditions: IL-1β 10 ng/ml 48 hours, 10 μM, n=6 RA
Description: The qPCR conditions used have been previously described (Laragione et al., “Cia5d Regulates a New Fibroblast-Like Synoviocyte Invasion-Associated Gene Expression Signature,” Arthritis Res. Ther. 10 (4):R92 (2008), which is hereby incorporated by reference in its entirety). Briefly, total RNA (200 ng) from each sample was reverse transcribed using Superscript III (Invitrogen). MMP-2 (forward-[…] (SEQ ID NO: 1); reverse-GGTATCCATCGCCATGCT (SEQ ID NO: 2) and MMP-3 (forward-CCAGGTGTGGAGTTCCTGA (SEQ ID NO: 3); reverse-[…] (SEQ ID NO: 4)) primers were designed based on the Universal ProbeLibrary (Roche, Indianapolis, Ind.). Reactions were prepared with Absolute Blue qPCR Mix (Thermo Fisher, Waltham, Mass.), and run in duplicate on a LightCycler 480 thermocycler (Roche) using Relative Quantitative Software (Roche). Ct (threshold cycle) values were adjusted for GAPDH in each sample (ΔCt). Fold differences were calculated with the 2^−ΔΔCt method (Livak et al., “Analysis of Relative Gene Expression Data Using Real-Time Quantitative PCR and the 2(-Delta Delta C(T)) Method,” Methods 25 (4):402-408 (2001), which is hereby incorporated by reference in its entirety).

[3] = 10 mg/Kg IP every-other-day from D10, scoring to D76

SMILES: C#Cc1cc(O)c(C2C=C(C)CCC2C(=C)C)c(O)c1C1C=C(C)CCC1C(=C)C [Compound 13, (1R,2″R,2R,2″S)-6′-ethynyl-5,5″-dimethyl-2,2″-di(prop-1-en-2-yl)-1,1″,2,2″,3,3″,4,4″-octahydro-[1,1′:3′,1″-terphenyl]-2′,4′-diol]
- Maximum arthritis severity score per mouse, mean±SD ([1]; 10 mg/Kg IP every-other-day): 7±4.2
- Reduction of maximum arthritis severity scores per mouse vs vehicle ([1]; 10 mg/Kg IP every-other-day): ~50% and 50%
- Arthritis severity index (ASI), mean±S.D. [1, 3]: 40.7±36.8
- Reduction in mean cumulative arthritis scores vs vehicle [1, 3]: 50%
- Arthritis severity (CIA) ([1]; collagen-induced arthritis): Protective in CIA
- Number of joints with the maximum score ([1]; day 63): 5
- Number of joints with the maximum score ([1]; day 70): 1

SMILES: C=C(C)[C@@H]1CCC(C)=C[C@H]1c1c(O)cc(C)cc1O [Compound O1821]
- Stimulation of Trpv1 (Trpv1): does not stimulate
- p65 NFκB activation (nuclear location) (p65 NFκB): did not change
- Cell invasion [2]: significantly reduce cell invasion
- Decrease of IL-1β-induced MMP-3 expression (MMP-3): 92% and 90%
